# Literature values in patent US20130143970A1, “MEDICINAL PREPARATION PARTICULARLY FOR THE TREATMENT OF SLIPPED DISCS HERNIAS” (priority 2002, published 2013).
# Conditions: intradiscal injections
compound,measurement,value
"CCO [absolute alcohol, ethanol]",treatment results in lumbar discal hernias,very promising results
